Measurements from US20100216772A1, “Novel Phenantridine Analogues and Uses Thereof” (priority 2004, published 2010).

Assays:
HaCaT keratinocytes = assay: Influence of compounds on keratinocyte proliferation (Cell Titer Viability Assay); assay type: cell-based; conditions: Homo sapiens, 25 μM test compound, 48 hrs, compared to control experiments
Experimental: 5×10^3 HaCaT keratinocytes were seeded into 60 wells of 96 well plates in 200 μl KBM/10% FCS and incubated for 24 hrs at 37° C. The test compounds were dissolved at 100 mM in DMSO. The test items were then diluted to a concentration of 25 μM in KBM/FCS with a final concentration of 1% DMSO. The test compounds, as well as the negative control for unstimulated cells (KBM/1% DMSO) and stimulated cells (KBM/FCS/1% DMSO), were added to the HaCaTs in triplicates and incubated for 48 hrs. At the end of the incubation period, the media was removed and cell numbers were determined with Cell Titer Viability Assay from Promega (#G7571/G7572) according to the manufacturer's instructions.

[1] = test system: Peripheral blood mononuclear cells (PBMCs); assay: Influence of compounds on T cell proliferation ([3H]-Thymidin, anti-CD3-stimulated PBMCs); assay type: cell-based; conditions: PBMC, three different human donors
Source text: Peripheral blood mononuclear cells (PBMCs) were isolated from peripheral blood by Ficoll gradient centrifugation. […] Subsequently, the cells were washed three times with PBS and were resuspended in 96-well plates in a concentration of 2×10^5 cells/well. […] As positive and negative controls, PBMCs, stimulated with soluble anti-CD3-antibody, and non-stimulated PBMCs plus 0,1% DMSO were used. The addition of 0,1% DMSO had no effect on the proliferation rate. […] The cells were harvested using a Mikro 96 Harvester (Skatron Instruments, Lier, Norwegen). The cpm-values indicative for proliferation were determined using a Packard Matrix 9600 Counter (Canberra Packard, Schwadorf, Österreich). The experiments were made with three different human donors.
In order to determine the EC50 of test compounds, the value of anti-CD3-stimulated cells plus 0,1% DMSO was set as 100%. All other values were divided by the 100% value in order to obtain a relative percentage of inhibition. The obtained percentage values were used to determine the EC50 values using Sigma Plot.

Structure (SMILES)	inhibition at 25 µM (HaCaT keratinocytes)	EC50 [1]
CC(=O)N1c2ccccc2-c2ccccc2C1c1c[nH]c2ccccc12 (centres unmarked) [Example 3, 1-[6-(1H-Indol-3-yl)-6H-phenanthridin-5-yl]-ethanone]	> 50%	< 25 µM
O=C(c1ccccc1)N1c2ccccc2-c2ccccc2C1c1c[nH]c2ccccc12 (centres unmarked) [Example 4, [6-(1H-Indol-3-yl)-6H-phenanthridin-5-yl]-phenylmethanone]	> 50%	
CN(C)c1ccc(C(=O)N2c3ccccc3-c3ccccc3C2c2c[nH]c3ccccc23)cc1 (centres unmarked) [Example 6, (4-Dimethylamino-phenyl)-[6-(1H-indol-3-yl)-6H-phenanthridin-5-yl]-methanone]	> 50%	
O=C(c1ccc(C(F)(F)F)cc1)N1c2ccccc2-c2ccccc2C1c1c[nH]c2ccccc12 (centres unmarked) [Example 7, [6-(1H-Indol-3-yl)-6H-phenanthridin-5-yl]-(4-trifluoromethyl-phenyl)-methanone]	> 50%	
O=C(c1cccc(F)c1)N1c2ccccc2-c2ccccc2C1c1c[nH]c2ccccc12 (centres unmarked) [Example 12, (3-Fluoro-phenyl)-[6-(1H-indol-3-yl)-6H-phenanthridin-5-yl]-methanone]	> 50%	< 25 µM
O=C(c1cccc(C(F)(F)F)c1)N1c2ccccc2-c2ccccc2C1c1c[nH]c2ccccc12 (centres unmarked) [Example 14, [6-(1H-Indol-3-yl)-6H-phenanthridin-5-yl]-(3-trifluoromethyl-phenyl)-methanone]	> 50%	
O=C(c1cc(C(F)(F)F)cc(C(F)(F)F)c1)N1c2ccccc2-c2ccccc2C1c1c[nH]c2ccccc12 (centres unmarked) [Example 17, (3,5-Bis-trifluoromethyl-phenyl)-[6-(1H-indol-3-yl)-6H-phenanthridin-5-yl]-methanone]	> 50%	
O=C(c1ccc(Cl)nc1)N1c2ccccc2-c2ccccc2C1c1c[nH]c2ccccc12 (centres unmarked) [Example 20, (6-Chloro-pyridin-3-yl)-[6-(1H-indol-3-yl)-6H-phenanthridin-5-yl]-methanone]	> 50%	
O=C(c1cccnc1Cl)N1c2ccccc2-c2ccccc2C1c1c[nH]c2ccccc12 (centres unmarked) [Example 21, (2-Chloro-pyridin-3-yl)-[6-(1H-indol-3-yl)-6H-phenanthridin-5-yl]-methanone]	> 50%	< 25 µM
O=C(c1ccco1)N1c2ccccc2-c2ccccc2C1c1c[nH]c2ccccc12 (centres unmarked) [Example 23, Furan-2-yl-[6-(1H-indol-3-yl)-6H-phenanthridin-5-yl]-methanone]	> 50%	< 25 µM
CC(C)C(=O)N1c2ccccc2-c2ccccc2C1c1c[nH]c2ccccc12 (centres unmarked) [Example 26, 1-[6-(1H-Indol-3-yl)-6H-phenanthridin-5-yl]-2-methyl-propan-1-one]	> 50%	< 25 µM
CCCC(C)C(=O)N1c2ccccc2-c2ccccc2C1c1c[nH]c2ccccc12 (centres unmarked) [Example 28, 1-[6-(1H-Indol-3-yl)-6H-phenanthridin-5-yl]-2-methyl-pentan-1-one]	> 50%	< 25 µM
O=C(C1CCC1)N1c2ccccc2-c2ccccc2C1c1c[nH]c2ccccc12 (centres unmarked) [Example 30, Cyclobutyl-[6-(1H-indol-3-yl)-6H-phenanthridin-5-yl]-methanone]	> 50%	
O=C(CCC1CCCCC1)N1c2ccccc2-c2ccccc2C1c1c[nH]c2ccccc12 (centres unmarked) [Example 34, 3-Cyclohexyl-1-[6-(1H-indol-3-yl)-6H-phenanthridin-5-yl]-propan-1-one]	> 50%	
O=C(CCc1ccccc1)N1c2ccccc2-c2ccccc2C1c1c[nH]c2ccccc12 (centres unmarked) [Example 35, 1-[6-(1H-Indol-3-yl)-6H-phenanthridin-5-yl]-3-phenyl-propan-1-one]	> 50%	
COC(=O)N1c2ccccc2-c2ccccc2C1c1c[nH]c2ccccc12 (centres unmarked) [Example 36, 6-(1H-Indol-3-yl)-6H-phenanthridine-5-carboxylic acid methyl ester]	> 50%	
Cc1ccc(S(=O)(=O)N2c3ccccc3-c3ccccc3C2c2ccc3c(c2)OCO3)cc1 (centres unmarked) [Example 76, 6-Benzo[1,3]dioxol-5-yl-5-(toluene-4-sulfonyl)-5,6-dihydro-phenanthridine]		< 25 µM
Cc1ccc(C(=O)n2c(=O)c3ccccc3c3ccccc32)cc1 [Example 77, 5-(4-Methyl-benzoyl)-5H-phenanthridin-6-one]		< 25 µM
Cc1ccc(S(=O)(=O)N2CC(=O)c3ccccc3-c3ccccc32)cc1 [Example 78, 5-(Toluene-4-sulfonyl)-5,6-dihydro-dibenzo[b,d]azepin-7-one]	> 50%	< 25 µM
O=C1CN(S(=O)(=O)c2ccccc2)c2ccccc2-c2ccccc21 [Example 79, 5-Benzenesulfonyl-5,6-dihydro-dibenzo[b,d]azepin-7-one]		< 25 µM
CC(=O)Nc1ccc(S(=O)(=O)N2CC(=O)c3ccccc3-c3ccccc32)cc1 [Example 81, N-[4-(7-Oxo-6,7-dihydro-dibenzo[b,d]azepine-5-sulfonyl)-phenyl]-acetamide]		< 25 µM
O=C1CN(S(=O)(=O)c2ccc(Br)cc2)c2ccccc2-c2ccccc21 [Example 82, 5-(4-Bromo-benzenesulfonyl)-5,6-dihydro-dibenzo[b,d]azepin-7-one]		< 25 µM
O=C1CN(S(=O)(=O)c2ccc([N+](=O)[O-])cc2)c2ccccc2-c2ccccc21 [Example 83, 5-(4-Nitro-benzenesulfonyl)-5,6-dihydro-dibenzo[b,d]azepin-7-one]		< 25 µM
O=C1CN(S(=O)(=O)c2cc(C(F)(F)F)cc(C(F)(F)F)c2)c2ccccc2-c2ccccc21 [Example 84, 5-(3,5-Bis-trifluoromethyl-benzenesulfonyl)-5,6-dihydro-dibenzo[b,d]azepin-7-one]		< 25 µM
O=C1CN(S(=O)(=O)c2cccs2)c2ccccc2-c2ccccc21 [Example 86, 5-(Thiophene-2-sulfonyl)-5,6-dihydro-dibenzo[b,d]azepin-7-one]		< 25 µM
